Several values for one entry are separate records, joined by “and”; a condition that tells them apart may be missing. Equal values may be shown once.

The record followed here is patent publication US20260337153A1, “IONIZABLE AMINE LIPIDS” (Intellia Therapeutics, Inc., priority 2023, published 2026).

Common to all, as to assay type: physicochemical
Data set [1] in a line: LNP average particle size and polydispersity by dynamic light scattering. The conditions noted are these: sgRNA:mRNA 1:2. The procedure: Dynamic Light Scattering (“DLS”) is used to characterize the polydispersity index (“pdi” or “PDI”) and size of the LNPs of the present disclosure. DLS measures the scattering of light that results from subjecting a sample to a light source. PDI, as determined from DLS measurements, represents the distribution of particle size (around the mean particle size) in a population, with a perfectly uniform population having a PDI of zero.
(§1) LNP compositions are analyzed for average particle size, polydispersity index (pdi), total RNA content, encapsulation efficiency of RNA, and zeta potential. LNP compositions may be further characterized by lipid analysis, AF4-MALS, NTA, and/or cryo-EM.
Average particle size and polydispersity are measured by dynamic light scattering (DLS) using a Malvern Zetasizer DLS instrument. LNP samples were diluted with PBS buffer prior to being measured by DLS. Z-average diameter (“Z-avg”) which is an intensity-based measurement of average particle size was reported along with number average diameter (“number mean”) and PDI. A Malvern Zetasizer instrument is also used to measure the zeta potential of the LNP. Samples are diluted 1:17 (50 μL into 800 μL) in 0.1×PBS, pH 7.4 prior to measurement.
(§2) In vivo editing efficiency for materials delivered with formulations including various amine lipid (or ionizable lipid) compounds in Experiments 1 through 14 as described in Tables 3 and 4 was assessed. Editing was measured using G000534 (SEQ ID NO: 5) which targets the rat TTR gene. Lipids described above were assessed for efficacy through in vivo editing experiments. LNPs were formulated at a 1:2 w/w ratio of sgRNA (SEQ ID NO: 5) and Cas9 mRNA (SEQ ID NO: 3). In Experiments 1 through 13, lipid components of the LNP are formulated in a molar ratio of 50% ionizable lipid, 38% cholesterol, 9% DSPC, and 3% PEG2K-DMG. In Experiment 14, lipid components of the LNP are formulated in a molar ratio of 50% ionizable lipid, 38% cholesterol, 9% DSPC, and 3% C13 Ether. The final LNPs used in different in vivo editing experiments were characterized to determine the encapsulation efficiency (% E), polydispersity index (PDI), and average particle size (Z-avg and number mean) according to the analytical methods provided above. The pKa values of each of the following ionizable lipids were also measured to be in the range of about 5.8 to about 7.6.
(§3) In vivo editing efficiency for materials delivered with formulations including various combinations of amine lipid (or ionizable lipid) and PEG lipid compounds was assessed as described in Tables 5 and 6. Editing was measured using G000534 (SEQ ID NO: 5) which targets the rat TTR gene. Lipids described above were assessed for efficacy through in vivo editing experiments. LNPs were formulated at a 1:2 w/w ratio of sgRNA (SEQ ID NO: 5) and Cas9 mRNA (SEQ ID NO:3). Lipid components of the LNP are formulated in a molar ratio of 50% ionizable lipid, 38% cholesterol, 9% DSPC, and 3% of various PEG lipids (e.g., PEG2K-DMG, C13 Ether, C14 Ether). The final LNPs used in different in vivo editing experiments were characterized to determine the encapsulation efficiency (% E), polydispersity index (PDI), and average particle size (Z-avg and number mean) according to the analytical methods provided above. The pKa values of each of the following ionizable lipids were also measured to be in the range of about 5.8 to about 7.6.
In vivo editing efficiency for materials delivered with formulations including various amine lipid (or ionizable lipid) compounds as described in Tables 7 and 8 was assessed. Editing was measured using G000534 (SEQ ID NO: 5) which targets the rat TTR gene. Lipids described above were assessed for efficacy through in vivo editing experiments. LNPs were formulated at a 1:2 w/w ratio of sgRNA (SEQ ID NO: 5) and Cas9 mRNA (SEQ ID NO: 3). Lipid components of the LNP were formulated in a molar ratio of 50% ionizable lipid, 38% cholesterol, 9% DSPC, and 3% C13 Ether. […]

A short description of data set [2]: pKa of unformulated amine lipid by TNS fluorescence. The settings on record: sodium phosphate buffer; Table 2; unformulated amine lipid, TNS; read-out: Lipid pKa. The procedure: The pKa of each amine lipid was determined according to the method in Jayaraman, et al. (Angew Chem Int Ed Engl 51(34), 2012, 8529-8533) with the following adaptations. The pKa was determined for unformulated amine lipid in ethanol. Lipid stock solutions (2.94 mM) were diluted into Sodium Phosphate Buffers (0.1 M, Boston Bioproducts) of different pH (pH-range: 4.5-9.0) yielding a final lipid concentration of approx. 100 μM. The test samples were supplemented with TNS {6-(p-Toluidino)-2-naphthalenesulfonic acid sodium salt}, incubated and the fluorescence intensity was measured using excitation and emission wavelengths of 321 nm and 448 nm, respectively. The recorded data were normalized and the respective pKa values were derived from sigmoidal fitting.

Data set [3] in a line: LNP encapsulation efficiency of RNA (Ribogreen fluorescence assay). The settings on record: sgRNA:mRNA 1:2. The procedure:
as §1
Encapsulation efficiency is calculated as (Total RNA−Free RNA)/Total RNA. A fluorescence-based assay (Ribogreen®, ThermoFisher Scientific) is used to determine total RNA concentration and free RNA. LNP samples are diluted appropriately with 1×TE buffer containing 0.2% Triton-X 100 to determine total RNA or 1×TE buffer to determine free RNA. Standard curves are prepared by utilizing the starting RNA solution used to make the compositions and diluted in 1×TE buffer+/−0.2% Triton-X 100. Diluted RiboGreen® dye (according to the manufacturer's instructions) is then added to each of the standards and samples and allowed to incubate for approximately 10 minutes at room temperature, in the absence of light. A SpectraMax M5 Microplate Reader (Molecular Devices) is used to read the samples with excitation, auto cutoff and emission wavelengths set to 488 nm, 515 nm, and 525 nm respectively. Total RNA and free RNA are determined from the appropriate standard curves. Alternatively, the total RNA concentration can be determined by a reverse-phase ion-pairing (RP-IP) HPLC method. Triton X-100 is used to disrupt the LNPs, releasing the RNA. The RNA is then separated from the lipid components chromatographically by RP-IP HPLC and quantified against a standard curve using UV absorbance at 260 nm.
as §2, §3
In vivo editing efficiency for materials delivered with formulations including various amine lipid (or ionizable lipid) compounds as described in Tables 7 and 8 was assessed. […]

Setting [4] is: LNP with 50% ionizable lipid, 38% cholesterol, 9% DSPC, 3% C13 Ether (LNP #1, Compound 53: 3% PEG2K-DMG instead).
Setting [5] is: Table 3, Experiment 14, LNP with 3% C13 Ether.
Where [6] appears, read: Table 3, Experiments 1-13, LNP 50% ionizable lipid, 38% cholesterol, 9% DSPC, 3% PEG2K-DMG.

`CCCCCCCCC(CCCCCCCC)OC(=O)CCCC(=O)OCC(COC(=O)CCCC(=O)OC(CCCCCCCC)CCCCCCCC)COC(=O)NCCN(CC)CC` [Compound 6, O,O′-(2-((((2-(diethylamino)ethyl)carbamoyl)oxy)methyl)propane-1,3-diyl) di(heptadecan-9-yl) diglutarate]: the “Number mean (average particle size)” value in data set [1] (setting [4]) is given as 67 nm. For the same compound, the “PDI (polydispersity index)” value in data set [1] (setting [4]) was determined as 0.002. Also, the “Z-avg (average particle size)” value in data set [1] (setting [4]) was determined as 81 nm. In addition, the Number mean was 68 nm in data set [1] (setting [5]); 68 nm and 75 nm in data set [1] (setting [6]); 72 nm in data set [1] (Table 5, PEG lipid C13 Ether); 81 nm in data set [1] (Table 5, PEG lipid C14 Ether); 69 nm in data set [1] (Table 5, PEG lipid PEG2K-DMG); 71 nm in data set [1] (Table 7, LNP with 3% C13 Ether). Besides, the PDI in data set [1] (setting [5]) is 0.02; in data set [1] (setting [6]), 0.014 and 0.02; in data set [1] (Table 5, PEG lipid C13 Ether), 0.01; in data set [1] (Table 5, PEG lipid C14 Ether) it was 0.01; in data set [1] (Table 5, PEG lipid PEG2K-DMG), 0.04; in data set [1] (Table 7, LNP with 3% C13 Ether), 0.01. For the same compound, the Z-avg in data set [1] (setting [5]) was 73 nm; in data set [1] (setting [6]), 75 nm and 79 nm; in data set [1] (Table 5, PEG lipid C13 Ether), 79 nm; in data set [1] (Table 5, PEG lipid C14 Ether) it was 86 nm; in data set [1] (Table 5, PEG lipid PEG2K-DMG) it was 78 nm; in data set [1] (Table 7, LNP with 3% C13 Ether), 78 nm. Besides, the pKa in data set [2] worked out at 6.35. Further, the “% E (encapsulation efficiency)” value is 99% in data set [3] (setting [4]); 98% in data set [3] (setting [5]); 99% in data set [3] (setting [6]); 97% in data set [3] (Table 5, PEG lipid C13 Ether); 98% in data set [3] (Table 5, PEG lipid C14 Ether); 97% in data set [3] (Table 5, PEG lipid PEG2K-DMG). The “% E (encapsulation efficiency)” value in data set [3] (Table 7, LNP with 3% C13 Ether) was determined as 98%.

In the case of `CCCCC/C=C\C/C=C\CCCCCCCC(=O)OCC(CCCCCCCCC(=O)OCC(CCCC)CCCCCC)COC(=O)OCCCN(CC)CC` (stereo not shown) [Compound 7, 11-((2-butyloctyl)oxy)-2-((((3-(diethylamino)propoxy)carbonyl)oxy)methyl)-11-oxoundecyl (9Z,12Z)-octadeca-9,12-dienoate], in data set [1] (setting [6]), the Number mean came out at 68 nm, the PDI is given as 0.03 and the Z-avg is on record as 74 nm. The pKa in data set [2] was 6.09. Moreover, the “% E (encapsulation efficiency)” value in data set [3] (setting [6]) is 98%.

For the compound `CCCCCCCCC(CCCCCCCC)OC(=O)CCCCCCC(COC(=O)CCCC(=O)OC(CCCCCCCC)CCCCCCCC)COC(=O)OCCCN(CC)CC` (stereo not shown) [Compound 8, 2-((((3-(diethylamino)propoxy)carbonyl)oxy)methyl)-9-(heptadecan-9-yloxy)-9-oxononyl heptadecan-9-yl glutarate], in data set [1] (setting [6]), the Number mean is recorded as 64 nm, the PDI is given as 0.03 and the Z-avg is listed as 69 nm. Besides, the pKa in data set [2] came out at 5.85. For the same compound, the “% E (encapsulation efficiency)” value in data set [3] (setting [6]) came to 98%.

As to `CCCCC/C=C\C/C=C\CCCCCCCC(=O)OCC(CCCCCCCCC(=O)OC(CCCCCCCC)CCCCCCCC)COC(=O)OCCCN(CC)CC` (stereo not shown) [Compound 9, 2-((((3-(diethylamino)propoxy)carbonyl)oxy)methyl)-11-(heptadecan-9-yloxy)-11-oxoundecyl (9Z,12Z)-octadeca-9,12-dienoate], in data set [1] (setting [6]), the Number mean was 61 nm and 65 nm and 62 nm; the PDI is on record as 0.03; the Z-avg is 68 nm and 73 nm. For the same compound, the pKa in data set [2] worked out at 5.87. In addition, in data set [3] (setting [6]), the “% E (encapsulation efficiency)” value is reported as 99%.

Regarding `CCCCC/C=C\C/C=C\CCCCCCCC(=O)OCC(CCCCCCCCC(=O)OC(CCCCCCCC)CCCCCCCC)COC(=O)NCCN(CC)CC` (stereo not shown) [Compound 10, 2-((((2-(diethylamino)ethyl)carbamoyl)oxy)methyl)-11-(heptadecan-9-yloxy)-11-oxoundecyl (9Z,12Z)-octadeca-9,12-dienoate], in data set [1] (setting [6]), the Number mean was found to be 83 nm, the PDI was 0.04 and the Z-avg came out at 90 nm. Moreover, the pKa in data set [2] was determined as 6.37. For the same compound, the “% E (encapsulation efficiency)” value in data set [3] (setting [6]) stood at 97%.

Turning to `CCCCC/C=C\C/C=C\CCCCCCCC(=O)OCC(CCCCCCCCC(=O)OC(CCCCCCCC)CCCCCCCC)COC(=O)OCCCN(C)CC` (stereo not shown) [Compound 11, 2-((((3-(ethyl(methyl)amino)propoxy)carbonyl)oxy)methyl)-11-(heptadecan-9-yloxy)-11-oxoundecyl (9Z,12Z)-octadeca-9,12-dienoate], in data set [1] (setting [6]), the Number mean is recorded as 70 nm, the PDI was found to be 0.02 and the Z-avg was found to be 78 nm. In addition, the pKa in data set [2] is 6.13. Moreover, in data set [3] (setting [6]), the “% E (encapsulation efficiency)” value was 99%.

Regarding `CCCCC/C=C\C/C=C\CCCCCCCC(=O)OCC(CCCCC(=O)OC(CCCC)CCCC)COC(=O)NCCN(CC)CC` (stereo not shown) [Compound 12, 2-((((2-(diethylamino)ethyl)carbamoyl)oxy)methyl)-7-(nonan-5-yloxy)-7-oxoheptyl (9Z,12Z)-octadeca-9,12-dienoate], in data set [1] (setting [6]), the Number mean is reported as 101 nm, the PDI is on record as 0.03 and the Z-avg is on record as 108 nm. Further, the pKa in data set [2] amounted to 6.82. In data set [3] (setting [6]), the “% E (encapsulation efficiency)” value was determined as 96%.

For `CCCCC/C=C\C/C=C\CCCCCCCC(=O)OCC(CCCCC(=O)OC(CCCC)CCCC)COC(=O)OCCCN(C)CC` (stereo not shown) [Compound 13, 2-((((3-(ethyl(methyl)amino)propoxy)carbonyl)oxy)methyl)-7-(nonan-5-yloxy)-7-oxoheptyl (9Z,12Z)-octadeca-9,12-dienoate], in data set [1] (setting [6]), the Number mean was determined as 87 nm, the PDI was determined as 0.04 and the Z-avg is given as 99 nm. Further, the pKa in data set [2] is 6.64. In addition, in data set [3] (setting [6]), the “% E (encapsulation efficiency)” value is 98%.

Usually pKa stands for the negative logarithm of the acid dissociation constant.
